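All cell lines were grown in 96-well plates and treated with compound for 48 hours. Abbreviation: GI50, concentration required for 50% inhibition of growth. Definition used: TGI = concentration required for complete inhibition of growth.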
Tests used:
Test in all cases: NCI-60 cell line screen, 48 h
786-0 renal = system: 786-0 renal
HCT-15 colon = system: HCT-15 colon
K-562 leukemia = system: K-562 leukemia
NCI-H23 lung = system: NCI-H23 lung
OVCAR-4 ovarian = system: OVCAR-4 ovarian
SW-620 colon = system: SW-620 colon
UO-31 renal = system: UO-31 renal
MCF7 breast = system: MCF7 breast
RXF 393 renal = system: RXF 393 renal

| SMILES | TGI (786-0 renal) | TGI (HCT-15 colon) | TGI (K-562 leukemia) | TGI (NCI-H23 lung) | TGI (OVCAR-4 ovarian) | TGI (SW-620 colon) | TGI (UO-31 renal) | TGI (MCF7 breast) | TGI (RXF 393 renal) | GI50 (MCF7 breast) | GI50 (OVCAR-4 ovarian) | GI50 (SW-620 colon) | GI50 (UO-31 renal) |
| --- | --- | --- | --- | --- | --- | --- | --- | --- | --- | --- | --- | --- | --- |
| CCOC(=O)CN(Cc1ccccc1)Cc1c(C(=O)c2ccccc2)c2ccccc2n1C(=O)c1ccccc1 | > 100 µM | > 100 µM | > 100 µM | > 100 µM | > 100 µM | > 100 µM | > 100 µM | – | – | – | – | – | – |
| Clc1cccc(N=C/C=C/Nc2cccc(Cl)c2)c1 | 37.4 µM | 37.7 µM | – | 54 µM | > 100 µM | 43.9 µM | 34.2 µM | 43.6 µM | 52.5 µM | – | – | – | – |
| CCCN(CCC)c1c([N+](=O)[O-])cc(C(=O)N(C)C)cc1[N+](=O)[O-] | > 100 µM | > 100 µM | > 100 µM | > 100 µM | 29.4 µM | – | > 100 µM | – | – | – | – | – | – |
| C/C(=C/c1c(C)[nH]c(=O)[nH]c1=O)C(=O)O | – | > 1380 µM | > 1380 µM | > 1380 µM | > 1380 µM | > 1380 µM | > 1380 µM | > 1380 µM | > 1380 µM | – | – | – | – |
| Cc1ccc(NC(=O)CC(=O)N2N=C(c3ccccc3)C(N=Nc3ccc(S(=O)(=O)CCOS(=O)(=O)O)cc3)C2=O)cc1 (stereo not drawn) | > 100 µM | > 100 µM | > 100 µM | > 100 µM | – | > 100 µM | > 100 µM | > 100 µM | > 100 µM | – | – | – | – |
| CC1(CO)C(=O)OC12CCCCC2 (stereo not drawn) | > 100 µM | – | > 100 µM | > 100 µM | > 100 µM | > 100 µM | > 100 µM | – | – | – | – | – | – |
| Cc1ccc(Nc2ccc(Nc3ccc(C)cc3S(=O)(=O)O)c3c2C(=O)c2ccccc2C3=O)c(S(=O)(=O)O)c1 | > 100 µM | > 100 µM | > 100 µM | – | > 100 µM | > 100 µM | > 100 µM | – | > 100 µM | – | – | – | – |
| CCCCNCC(O)c1cc(-c2ccc(C(F)(F)F)cc2)nc(-c2ccc(C(F)(F)F)cc2)c1 (stereo not drawn) | – | – | – | – | 3.93 µM | 2.96 µM | 3.08 µM | 3.54 µM | – | 1790 nM | 2110 nM | 1260 nM | 1440 nM |
| CCc1cc2c(oc3c4ccccc4ccc23)c(=O)[nH]1 | > 10 µM | – | > 10 µM | > 10 µM | > 10 µM | > 10 µM | > 10 µM | > 10 µM | > 10 µM | – | – | – | – |
| NC(CNc1ccc(O)cc1)C(=O)O (stereo not drawn) | 30.2 µM | > 100 µM | > 100 µM | – | 31.7 µM | > 100 µM | > 100 µM | – | > 100 µM | – | – | – | – |
